Laboratory results published in US20060013794A1, “Cosmetic or pharmaceutical composition comprising peptides with the sequences arggly-ser” (priority 2002, published 2006).
Where a SMILES comes first, the peptide text is derived from it.

Test system: HaCat human keratinocytes
Assay: Cell differentiation, immunofluorescence with anti-ERG 1-2 antibodies
Assay type: cell-based
Settings: at 24 hours

quantity of ERG molecules present in the cells (fluorescence intensity, cell differentiation marker): increases
SMILES: N=C(N)NCCC[C@H](N)C(=O)NCC(=O)N[C@@H](CO)C(=O)O [Arg-Gly-Ser] (H-Arg-Gly-Ser-OH)
